# Earlier results in publication PMC11575912 (Journal of Clinical Oncology, 2024).
# How the values were obtained:
# [1] = tested on: p110α over the β, δ, and γ isoforms; settings: biochemical assays
# CYP = settings: in vitro or in the human mass balance study; ref unpublished data on file
# [2] = once daily
structure (smiles),measurement,setting,value
C[C@H](Nc1ccc2c(c1)OCCn1cc(N3C(=O)OC[C@H]3C(F)F)nc1-2)C(N)=O [inavolisib],"Selectivity for p110α over the β, δ, and γ isoforms",[1],> 300 fold
same,CYP-mediated metabolism,CYP,did not undergo extensive CYP-mediated metabolism
same,Single-agent maximum tolerable dose,[2],9 mg
